Test results as given in patent publication US20200323860A1, “METHODS AND MATERIALS FOR TREATING CANCER” (Mayo Foundation for Medical Education and Research, priority 2015, published 2020).

How the values were obtained:
[1] = system: binding of Parkin to Cdc20; assay: Parkin-Cdc20 binding in cells, IP-immunoblot; assay type: cell-based; conditions: cells treated with chemical, with or without nocodazole (FIG. 9J)
[2] = system: Parkin WT or KO MEF cells; assay: Sensitivity of Parkin WT or KO MEF cells to BI […], crystal violet staining; assay type: cell-based, mouse; conditions: FIG. 11F
Protocol: (A) Cells were transfected with the indicated plasmids, and mitotic cells were analyzed by immunoblot for the indicated proteins. […] (C) A549 cells stably transfected with doxycycline-inducible constructs encoding WT Parkin or mutant Parkin (S378A and S378D) were treated with doxycycline and subjected to IP and immunoblot as indicated (Top), in vivo ubiquitination (Bottom). (D) Athymic nude mice were injected subcutaneously with A549 cells stably-transfected with vector or doxycycline-inducible Parkin constructs (WT, S378A and S378D). Two days after injection, doxycycline was administered in drinking water. Tumor growth was measured at the indicated times after injection. n=5 for each group. […] Tumor volumes (mm^3) were measured at the indicated times after injection (Bottom). *, p<0.05, **, p<0.01 and ***, p<0.001 by two-way ANOVA. (E) Cells were infected with the indicated constructs and were collected for FACS analysis. […] Results represent the means (±S.E.) of three experiments performed in triplicate. *, p<0.05 and ***, p<0.001 versus Parkin WT MEFs by one-way ANOVA (Right). […] Mean transformed MEFs volumes for Parkin KO are shown. ***, p<0.001 and ****, p<0.0001 versus Parkin WT MEFs by two-way ANOVA.
For colony formation or foci assay, early-passage MEFs (passage 5) cells were plated at low density into 60-mm cell culture plates. […]

[3] = system: Parkin KO MEF tumors in nude mice; assay: Mouse xenograft tumor model with Parkin WT or KO MEFs; assay type: in vivo; conditions: tumors with Parkin-deficiency, i.v., 20 mg/kg twice weekly, four cycles
Protocol: FIGS. 11A-11H. Parkin Is A Key Mitotic Regulator Functioning as a Tumor Suppressor. (A) Cells were transfected with the indicated plasmids, and mitotic cells were analyzed by immunoblot for the indicated proteins. (B) Schematic of the experiments. (C) A549 cells stably transfected with doxycycline-inducible constructs encoding WT Parkin or mutant Parkin (S378A and S378D) were treated with doxycycline and subjected to IP and immunoblot as indicated (Top), in vivo ubiquitination (Bottom). (D) Athymic nude mice were injected subcutaneously with A549 cells stably-transfected with vector or doxycycline-inducible Parkin constructs (WT, S378A and S378D). […] Tumor growth was measured at the indicated times after injection. n=5 for each group. […] Tumor volumes (mm^3) were measured at the indicated times after injection (Bottom). *, p<0.05, **, p<0.01 and ***, p<0.001 by two-way ANOVA. […]
For MEF xenograft experiments, equal numbers (1×10^6 cells) of Parkin WT or KO MEF cells expressing luciferase mixed at a 1:1 dilution with matrigel (Collaborative Research) were implanted in the backs of athymic nude mice. Tumor growth was monitored using calipers and visualized with a bioluminescence-based IVIS system (Caliper LifeScience). […] Tumour growth was measured using a vernier caliper at the indicated times after injection, and the tumor volume was calculated as length×width×height. […]

[4] = system: Parkin phosphorylation at Ser378; assay: Parkin Ser378 phosphorylation in cells, IP and immunoblot with pS378 antibody; assay type: cell-based
Protocol: FIGS. 9A-9K. Parkin Is Phosphorylated by Plk1 at Ser378 and Activated during Mitosis. (A) Cells were synchronized at the G1/S transition by double-thymidine block, and cells were released. Cell were harvested at indicated times and analyzed by immunobloting. (B) Cells were incubated in the absence or presence of nocodazole or CCCP and subjected to immunoblot analysis with the indicated antibodies. (C) Comparison of the sequences surrounding 5378 of Parkin orthologues (SEQ ID NOS 42-47, respectively, in order of appearance). […] Immunoprecipitates were incubated with or without λ phosphatase (PPase) and were analyzed by immunobloting with pS378 antibody. (E) Cells were infected with the indicated constructs, synchronized by nocodazole, and released. Parkin phosphorylation at pS378 was then examined by immunoblot analysis. (F) Cells were transfected with indicated plasmids, and Parkin phosphorylation at pS378 was examined. (G) In vitro kinase assay of Parkin by Plk1. Parkin phosphorylation was visualized by pS378 Parkin antibody. (H) Cells were transfected with the indicated plasmids, and then treated with nocodazole. Cell lysates were then blotted with the indicated antibodies. (I) in vitro ubiquitination of Cyclin B1, Securin and Nek2A by WT Parkin and mutants (S65A, S65D, S378A and S378D). […] Samples were analyzed by immunobloting with anti-Cyclin B1, Securin and Nek2A antibody. […]

[5] = system: Parkin-deficient lung cancer cell lines; assay: Growth inhibition of Parkin-deficient lung cancer cell lines; assay type: cell-based, human; conditions: BI 2536 100 nM or VX-680 50 nM for 72 hours; BI 2536 dose dependent for 3 days (FIG. 13C-13F)
Protocol: (§1) FIG. 13A-13F. […] (A and B) Parkin WT and KO MEFs under various condition were analyzed for foci formation assay, number of cell growth, SA-β-gal staining for senescence, colony formation assay. Cells were infected or treated with the indicated constructs or chemical and stained (A, left). Cells were infected with the indicated constructs and stained (B, left). Quantification of (left panel) with stained cell intensity results represent the means (±S.E.) of three independent experiments performed in triplicate (right). *, p<0.05, **, p<0.01 and ***, p<0.001 by one-way ANOVA. […] Quantification of cell numbers results represent the means (±S.E.) of three independent experiments performed in triplicate. ***, p<0.001 by one-way ANOVA.
(§2) All cell lines were sourced from commercial venders. […] Three normal lung (2 fibroblasts, IMR-90 and WI-38; 1 epithelial cells; BEAS-2B) cells, six NSCLCs (4 adenocarcinoma, H1437, H522, H1650 and A549; 2 large cell carcinoma, H460 and H1299), and one SCLC (H196) cells were maintained in Eagle's minimal essential media (EMEM, Gibco-Invitrogen, Grand Island, N.Y.). The human lung fibroblast IMR-90 and WI-38 cells were obtained from the American Type Culture Collection (ATCC, Manassas, Va.), and cells ranging from 29 to 34 in population doubling level (PDL) were used. […]

Parkin KO MEFs = assay: Transformation and escaped senescence of Parkin KO MEFs (foci formation, cell growth, SA-β-gal staining, colony formation); assay type: cell-based, mouse; conditions: FIG. 13A
Protocol: FIG. 13A-13F. Transformed and escape senescence events in Parkin KO MEFs were reversed by expressing WT Parkin or downregulation of Plk1 but not C431S or S378A, related to FIGS. 6. (A and B) Parkin WT and KO MEFs under various condition were analyzed for foci formation assay, number of cell growth, SA-β-gal staining for senescence, colony formation assay. Cells were infected or treated with the indicated constructs or chemical and stained (A, left). Cells were infected with the indicated constructs and stained (B, left). Quantification of (left panel) with stained cell intensity results represent the means (±S.E.) of three independent experiments performed in triplicate (right). *, p<0.05, **, p<0.01 and ***, p<0.001 by one-way ANOVA. […] Quantification of cell numbers results represent the means (±S.E.) of three independent experiments performed in triplicate. ***, p<0.001 by one-way ANOVA.
For colony formation or foci assay, early-passage MEFs (passage 5) cells were plated at low density into 60-mm cell culture plates. When sufficient colonies were visible, typically after 2-3 weeks, cells were washed twice in PBS before fixing in ice-cold 70% methanol for 30 minutes, stained by 0.2% Crystal violet for 2-3 hours. The following day cells were rinsed in PBS and air-dried. […]

[6] = system: lung normal fibroblast (WI-38 and IMR 90 cells); assay: Growth inhibition of normal lung fibroblasts; assay type: cell-based, human; conditions: WI-38 and IMR 90 cells (FIG. 13E and 13F)
Protocol: as §1, §2

Structure (SMILES)	binding of Parkin to Cdc20 [1]	transformation of Parkin KO MEFs [2]	tumor inhibition in vivo [3]	Parkin phosphorylation at Ser378 ([4]; nocodazole-arrested mitotic cells, with Plk1 inhibitor (FIG. 9D))	sensitivity (growth inhibition) of Parkin-deficient lung cancer cell lines [5]	escaped senescence and transformation induced by Parkin depletion (Parkin KO MEFs)	sensitivity (growth inhibition) of lung normal fibroblasts [6]	Ser 378 phosphorylation of Parkin ([4]; cells incubated with CCCP (FIG. 9B))
CC[C@@H]1C(=O)N(C)c2cnc(Nc3ccc(C(=O)NC4CCN(C)CC4)cc3OC)nc2N1C1CCCC1 [BI 2536, (R)-4-(8-cyclopentyl-7-ethyl-5-methyl-6-oxo-5,6,7,8-tetrahydropteridin-2-ylamino)-3-methoxy-N-(1-methylpiperidin-4-yl)benzamide]	decreased binding of Parkin to Cdc20	inhibited transformation of Parkin KO MEFs	excellent tumor inhibition	blocked Parkin phosphorylation at Ser378	significantly sensitive	transformation was abolished	but not lung normal fibroblasts	–
N#CC(C#N)=NNc1cccc(Cl)c1 [CCCP, carbonyl cyanide m-chlorophenylhydrazone]	–	–	–	–	–	–	–	did not affect Ser 378 phosphorylation
Cc1cc(Nc2cc(N3CCN(C)CC3)nc(Sc3ccc(NC(=O)C4CC4)cc3)n2)n[nH]1 [VX 680, N-(4-(4-(5-methyl-1H-pyrazol-3-ylamino)-6-(4-methylpiperazin-1-yl)pyrimidin-2-ylthio)phenyl)-cyclopropanecarboxamide]	–	–	–	–	significantly sensitive	–	but not lung normal fibroblasts	–
